{"source": "patent US20190343908A1", "about": "“Therapeutic Combination for the Treatment of Cancer” (Nerium Biotechnology Inc., priority 2011, published 2019)", "key": {"[1]": {"test_system": "T47D (human breast cancer)", "assay": "Crystal Violet viability assay, T47D", "format": "cell-based", "design": "key: absorbance at 570 nm (crystal violet), background wavelength subtracted", "from_the_text": "(§1) Three different viability assays were chosen to complement each other and yielded results dependent on concentration and cell line: the Methyl Tetrazolium dye assay, the Sulforhodamine B fluorescent dye assay, and the Crystal Violet dye assay.\nThe Sulforhodamine B and Crystal Violet assays provide information about protein and were used to complement the Methyl-Tetrazolium dye assay. […] It is used for the quantification of cellular proteins of cultured cells. The assay using Crystal Violet, a dye that binds electrostatically to proteins and stains DNA, provides a reliable, simple assay for measuring viability of cells.\n(§2) The Methyl Tetrazolium, Sulforhodamine B, and Crystal Violet assays were used to assess cell viabilities. The incubation times were 24 hours, 48 hours, and 72 hours. The Nerium oleander extract Anvirzel™ (a hot water extract of oleander obtained from Salud Integral, Honduras) was tested in concentrations ranging from 0.01 ng/mL to 10 ng/mL.\n(§3) Cells were detached by trypsinization (Trypsin-0.25% EDTA, Invitrogen, 25200-072) during the logarithmic phase of culture growth and plated in 96-well plates (18.000 cells/well) (Corning, Costar 359) in a final volume of 200 μl of medium per well. […] The absorbance was measured after 24 hours, 48 hours, and 72 hours of incubation.\nFor the Crystal Violet assay, the medium was removed from the 96-well plates, the plates rinsed with PBS (Sigma, P3813) and then the cells were […] by the addition of 10% formalin (MERCK, 1.04003.2500) for 20 minutes at RT. Formalin was removed and 0.25% aqueous crystal violet (Sigma, HT901), dissolved in water, was added for 10 minutes at RT. Unbound Crystal Violet was rinsed by washing with water and finally 33% acetic acid was added to dissolve the dye.\n(§4) The optical density of each plate was measured on a μQuant spectrophotometer and the data were analyzed with Gen5 software (μQuant Biomolecular Spectrophotometer MQX200 and Gen5™ Microplate Data Collection & Analysis software, BioTek® Instruments. Inc, April 2008). Absorbance was measured at 570 nm for all assays and a second wavelength was measured in order to subtract noise. For the Methyl-Tetrazolium assay this second wavelength was 630 nm and for the Sulforhodamine B and Crystal Violet assays it was 690 nm."}, "[2]": {"test_system": "22Rv1 (human prostate cancer)", "assay": "Methyl-Tetrazolium (MTT) viability assay, 22Rv1", "format": "cell-based", "details": "for Average absorbance, MTT 24 h / Average absorbance, MTT 48 h / Average absorbance, MTT 72 h: 22Rv1 Run 3", "from_the_text": "as §1\nThe Methyl-Tetrazolium dye assay measures the activity of enzymes in mitochondria. The dye precursor is taken up by cells, where it undergoes reduction to the purple formazan. It measures only the mitochondrial activity and, thus, it is not always a reliable indication of whether the cells themselves are alive or dead, since even a recently dead cell has […] enzyme activity in mitochondria. Intracellular glucose concentration, pH, and time before assay all affect the measurements.\nas §2, §3\nFor the Methyl-Tetrazolium assay, the dye (Sigma, M2128; 5 mg/mL, diluted in phosphate-buffered saline) was added to each well and plates were incubated for 3 hours at 37° C. After the end of the incubation period, the medium was discarded and the cells were rinsed with phosphate-buffered saline. Finally, the formazan crystals were dissolved in dimethylsulphoxide (Sigma, D4540).\nas §4"}}, "data": [{"smiles": "N.N.[Cl][Pt][Cl]", "note": "[cisplatin]", "values": [{"measurement": "CVE Average", "setting": "[1]; T47D Run 1, 24 h, 0.1 μg/ml CDDP", "value": 0.64}, {"measurement": "CVE Average", "setting": "[1]; T47D Run 1, 24 h, 10 μg/ml CDDP", "value": 0.417}, {"measurement": "CVE Average", "setting": "[1]; T47D Run 1, 48 h, 0.1 μg/ml CDDP", "value": 0.67}, {"measurement": "CVE Average", "setting": "[1]; T47D Run 1, 48 h, 1 μg/ml CDDP", "value": 0.369}, {"measurement": "CVE Average", "setting": "[1]; T47D Run 1, 48 h, 10 μg/ml CDDP", "value": 0.518}, {"measurement": "CVE Average", "setting": "[1]; T47D Run 1, 48 h, 100 μg/ml CDDP", "value": 0.319}, {"measurement": "CVE Average", "setting": "[1]; T47D Run 1, 72 h, 0.1 μg/ml CDDP", "value": 0.654}, {"measurement": "CVE Average", "setting": "[1]; T47D Run 1, 72 h, 1 μg/ml CDDP", "value": 0.347}, {"measurement": "CVE Average", "setting": "[1]; T47D Run 1, 72 h, 10 μg/ml CDDP", "value": 0.34}, {"measurement": "CVE Average", "setting": "[1]; T47D Run 1, 72 h, 100 μg/ml CDDP", "value": 0.293}, {"measurement": "CVE Average", "setting": "[1]; T47D Run 2, 24 h, 1 μg/ml CDDP", "value": 0.385}, {"measurement": "CVE Average", "setting": "[1]; T47D Run 2, 24 h, 10 μg/ml CDDP", "value": 0.597}, {"measurement": "CVE Average", "setting": "[1]; T47D Run 2, 24 h, 100 μg/ml CDDP", "value": 0.317}, {"measurement": "CVE Average", "setting": "[1]; T47D Run 2, 48 h, 0.1 μg/ml CDDP", "value": 0.45}, {"measurement": "CVE Average", "setting": "[1]; T47D Run 2, 48 h, 1 μg/ml CDDP", "value": 0.223}, {"measurement": "CVE Average", "setting": "[1]; T47D Run 2, 48 h, 10 μg/ml CDDP", "value": 0.315}, {"measurement": "CVE Average", "setting": "[1]; T47D Run 2, 72 h, 0.1 μg/ml CDDP", "value": 1.124}, {"measurement": "CVE Average", "setting": "[1]; T47D Run 2, 72 h, 1 μg/ml CDDP", "value": 0.33}, {"measurement": "CVE Average", "setting": "[1]; T47D Run 2, 72 h, 10 μg/ml CDDP", "value": 0.334}, {"measurement": "CVE Average", "setting": "[1]; T47D Run 2, 72 h, 100 μg/ml CDDP", "value": 0.381}, {"measurement": "CVE Average", "setting": "[1]; T47D Run 3, 24 h, 1 μg/ml CDDP", "value": 0.4}, {"measurement": "CVE Average", "setting": "[1]; T47D Run 3, 24 h, 10 μg/ml CDDP", "value": 0.488}, {"measurement": "CVE Average", "setting": "[1]; T47D Run 3, 24 h, 100 μg/ml CDDP", "value": 0.385}, {"measurement": "CVE Average", "setting": "[1]; T47D Run 3, 48 h, 0.1 μg/ml CDDP", "value": 0.778}, {"measurement": "CVE Average", "setting": "[1]; T47D Run 3, 48 h, 1 μg/ml CDDP", "value": 0.435}, {"measurement": "CVE Average", "setting": "[1]; T47D Run 3, 48 h, 100 μg/ml CDDP", "value": 0.544}, {"measurement": "CVE Average", "setting": "[1]; T47D Run 3, 72 h, 0.1 μg/ml CDDP", "value": 0.722}, {"measurement": "CVE Average", "setting": "[1]; T47D Run 3, 72 h, 1 μg/ml CDDP", "value": 0.223}, {"measurement": "CVE Average", "setting": "[1]; T47D Run 3, 72 h, 10 μg/ml CDDP", "value": 0.31}, {"measurement": "CVE Average", "setting": "[1]; T47D Run 3, 72 h, 100 μg/ml CDDP", "value": 0.22}, {"measurement": "MTT 24 h Average", "setting": "[2]; 22Rv1 Run 1, 0.1 μg/ml CDDP", "value": 0.042}, {"measurement": "MTT 48 h Average", "setting": "[2]; 22Rv1 Run 1, 0.1 μg/ml CDDP", "value": 0.141}, {"measurement": "MTT 72 h Average", "setting": "[2]; 22Rv1 Run 1, 0.1 μg/ml CDDP", "value": 0.168}, {"measurement": "MTT 24 h Average", "setting": "[2]; 22Rv1 Run 1, 1 μg/ml CDDP", "value": 0.013}, {"measurement": "MTT 48 h Average", "setting": "[2]; 22Rv1 Run 1, 1 μg/ml CDDP", "value": 0.013}, {"measurement": "MTT 72 h Average", "setting": "[2]; 22Rv1 Run 1, 1 μg/ml CDDP", "value": 0.015}, {"measurement": "MTT 24 h Average", "setting": "[2]; 22Rv1 Run 1, 10 μg/ml CDDP", "value": 0.033}, {"measurement": "MTT 48 h Average", "setting": "[2]; 22Rv1 Run 1, 10 μg/ml CDDP", "value": 0.013}, {"measurement": "MTT 72 h Average", "setting": "[2]; 22Rv1 Run 1, 10 μg/ml CDDP", "value": 0.01}, {"measurement": "MTT 24 h Average", "setting": "[2]; 22Rv1 Run 1, 100 μg/ml CDDP", "value": 0.011}, {"measurement": "MTT 48 h Average", "setting": "[2]; 22Rv1 Run 1, 100 μg/ml CDDP", "value": 0.008}, {"measurement": "MTT 72 h Average", "setting": "[2]; 22Rv1 Run 1, 100 μg/ml CDDP", "value": 0.009}, {"measurement": "MTT 24 h Average", "setting": "[2]; 22Rv1 Run 2, 0.1 μg/ml CDDP", "value": 0.077}, {"measurement": "MTT 48 h Average", "setting": "[2]; 22Rv1 Run 2, 0.1 μg/ml CDDP", "value": 0.172}, {"measurement": "MTT 72 h Average", "setting": "[2]; 22Rv1 Run 2, 0.1 μg/ml CDDP", "value": 0.29}, {"measurement": "MTT 24 h Average", "setting": "[2]; 22Rv1 Run 2, 1 μg/ml CDDP", "value": 0.011}, {"measurement": "MTT 48 h Average", "setting": "[2]; 22Rv1 Run 2, 1 μg/ml CDDP", "value": 0.014}, {"measurement": "MTT 72 h Average", "setting": "[2]; 22Rv1 Run 2, 1 μg/ml CDDP", "value": 0.016}, {"measurement": "MTT 24 h Average", "setting": "[2]; 22Rv1 Run 2, 10 μg/ml CDDP", "value": 0.019}, {"measurement": "MTT 48 h Average", "setting": "[2]; 22Rv1 Run 2, 10 μg/ml CDDP", "value": 0.016}, {"measurement": "MTT 72 h Average", "setting": "[2]; 22Rv1 Run 2, 10 μg/ml CDDP", "value": 0.013}, {"measurement": "MTT 24 h Average", "setting": "[2]; 22Rv1 Run 2, 100 μg/ml CDDP", "value": 0.009}, {"measurement": "MTT 48 h Average", "setting": "[2]; 22Rv1 Run 2, 100 μg/ml CDDP", "value": 0.008}, {"measurement": "MTT 72 h Average", "setting": "[2]; 22Rv1 Run 2, 100 μg/ml CDDP", "value": 0.008}, {"measurement": "Average absorbance, MTT 24 h", "setting": "[2]; 0.1 μg/ml CDDP", "value": 0.08}, {"measurement": "Average absorbance, MTT 48 h", "setting": "[2]; 0.1 μg/ml CDDP", "value": 0.135}, {"measurement": "Average absorbance, MTT 72 h", "setting": "[2]; 0.1 μg/ml CDDP", "value": 0.128}, {"measurement": "Average absorbance, MTT 24 h", "setting": "[2]; 1 μg/ml CDDP", "value": 0.015}, {"measurement": "Average absorbance, MTT 48 h", "setting": "[2]; 1 μg/ml CDDP", "value": 0.016}, {"measurement": "Average absorbance, MTT 72 h", "setting": "[2]; 1 μg/ml CDDP", "value": 0.015}, {"measurement": "Average absorbance, MTT 24 h", "setting": "[2]; 10 μg/ml CDDP", "value": 0.023}, {"measurement": "Average absorbance, MTT 48 h", "setting": "[2]; 10 μg/ml CDDP", "value": 0.017}, {"measurement": "Average absorbance, MTT 72 h", "setting": "[2]; 10 μg/ml CDDP", "value": 0.013}, {"measurement": "Average absorbance, MTT 24 h", "setting": "[2]; 100 μg/ml CDDP", "value": 0.011}, {"measurement": "Average absorbance, MTT 48 h", "setting": "[2]; 100 μg/ml CDDP", "value": 0.011}, {"measurement": "Average absorbance, MTT 72 h", "setting": "[2]; 100 μg/ml CDDP", "value": 0.011}]}]}
